Test: Particle size distribution by laser diffraction (Sympatec Helos)
Assay type: physicochemical
Procedure: As used herein, “particle size distribution” means the distribution of equivalent spherical diameters as determined by laser diffraction in a Sympatec Helos equipment. The particle size distributions for fillers and uncompacted citalopram are determined at 1 bar dispersive pressure, whereas the particle size distributions for compacted granulates are determined at 0.2 bar dispersive pressure in order to avoid deaggregation of the granules leading to erroneous results. “Median particle size”, correspondingly, means the median of said particle size distribution.

[1] = Sympatec Helos, 1 bar dispersive pressure for fillers and uncompacted citalopram, 0.2 bar for compacted granulates

With CN(C)CCCC1(c2ccc(F)cc2)OCc2cc(C#N)ccc21 (centres unmarked) [Citalopram HBr] the “Particle size distribution, quantile 10%” value [1] was 1.2 μm, the “Particle size distribution, quantile 50% (median particle size)” value [1] was 14.0 μm and the “Particle size distribution, quantile 90%” value [1] was 72.3 μm. The “Particle size distribution, quantile 95%” value [1] was 97.0 μm and the Particle size (product of the process used for preparation of citalopram hydrobromide, general statement) was 2-20 μm.

From patent publication US20040058989A1, “Pharmaceutical composition containing citalopram” (H. Lundbeck A/S, priority 2001, published 2004)
